Source: patent US20040048834A1, “Antitumoral compounds” (priority 2000, published 2004)
Counter-ions that a name gives are not always drawn. Like-named read-outs stand apart in the source and are kept apart here.

What was measured:
A549 = assay: Cytotoxicity of spisulosine analogs, A549 (after Berjeron et al); format: cell-based; conditions: methodology after Berjeron et al, NA=not active, read-out: Cytotoxicity IC50 A549
HT29 = assay: Cytotoxicity of spisulosine analogs, HT29 (after Berjeron et al); format: cell-based; conditions: methodology after Berjeron et al, NA=not active, read-out: Cytotoxicity IC50 HT29

Compound	IC50 (A549; A549)	IC50 (HT29; HT29)	IC50 (A549; A549, hydrochloride)	IC50 (HT29; HT29, hydrochloride)	also measured
CCCCCCCCCCCCCCC[C@@H](N)[C@H](C)N	1400 nM	1400 nM	–	–	–
CCCCCCCCCCCCCCC[C@@H](OC(=O)C(F)(F)F)[C@H](C)N	20.2 nM	20.2 nM	–	–	–
CCCCCCCCCCCCCCC[C@H](N)[C@H](C)N	280 nM	280 nM	–	–	–
CCCCCCCCCCCCCCC[C@@H](O)[C@H](C)NS(C)(=O)=O	27.5 nM	27.5 nM	–	–	–
CCCCCCCCCCCCCCCC[C@@H](O)[C@H](C)NS(C)(=O)=O	265 nM	265 nM	–	–	–
CCCCCCCCCCCCC/C=C/[C@@H](O)[C@@H](N)CF	–	–	–	–	IC50 (A549; Homo sapiens, A549, A549): 33.2 nM; IC50 (HT29; Homo sapiens, HT-29, HT29): 33.2 nM
CCCCCCCCCCCCCCC[C@@H](OC)[C@H](C)N [(2S,3R)-2-Amino-3-(methoxy)-octadecane]	–	–	–	–	IC50 (A549; Homo sapiens, A549, A549): 1670 nM; IC50 (HT29; Homo sapiens, HT-29, HT29): 1670 nM
CCCCCCCCCCCCC[C@@H](O)[C@H](C)N [drawing 42, (2S,3R)-2-Amin-3-hexadecanol hydrochloride]	–	–	3.4 nM	3.4 nM	–
CCCCCCCCCCCCCC[C@@H](O)[C@H](C)N [drawing 45, (2S,3R)-2-Amino-3-heptadecanol hydrochloride]	–	–	32.5 nM	32.5 nM	–
CCCCCCCCCCCCCCCC[C@@H](O)[C@H](C)N [drawing 49, (2S,3R)-2-Amino-3-nonadecanol hydrochloride]	–	–	–	–	IC50 (A549; Homo sapiens, A549, A549): 29.8 nM; IC50 (HT29; Homo sapiens, HT-29, HT29): 29.8 nM
CCCCCCCCCCCCCCCCC[C@@H](O)[C@H](C)N [drawing 51, (2S,3R)-2-Amino-3-eicosanol hydrochloride]	–	–	14.3 nM	14.3 nM	–
CCCCCCCCCCCCCCCCCC[C@@H](O)[C@H](C)N [drawing 53, (2S,3R)-2-Amino-3-heneicosanol hydrochloride]	–	–	27.5 nM	27.5 nM	–
CCCCCCCCCCCCCC[C@@H](O)[C@@H](N)CC [drawing 56, (3S,4R)-3-Amino-4-octadecanol]	3.5 nM	3.5 nM	–	–	–
CCCCCCCCCCCCCC[C@@H](O)[C@@H](N)CC [drawing 57, (3s,4R)-3-Amino-4-octadecanol hydrocloride]	15.5 nM	15.5 nM	–	–	–
CCCCCCCCCCCCCCC[C@@H](O)[C@@H](N)CC [drawing 59, (3S,4R)-3-Amino-4-nonadecanol hydrochloride]	–	–	2.98 nM	2.98 nM	–
CCCCCCCCCCCCCCCC[C@@H](O)[C@@H](N)CC [drawing 60, (3S,4R)-3-Amino-4-eicosanol]	319 nM	319 nM	–	–	–
CCCCCCCCCCCCCCCC[C@@H](O)[C@@H](N)CC [drawing 61, (3S,4R)-3-Amino-4-eicosanol hydrochloride]	–	–	28.6 nM	28.6 nM	–
CCCCCCCCCCCCCCCCC[C@@H](O)[C@@H](N)CC [drawing 62, (3S,4R)-3-Amino-4-heneicosanol]	–	–	–	–	IC50 (A549; Homo sapiens, A549, A549): 30.5 nM; IC50 (HT29; Homo sapiens, HT-29, HT29): 30.5 nM
CCCCCCCCCCCCCCCCC[C@@H](O)[C@@H](N)CC [drawing 63, (3S,4R)-3-Amino-4-heneicosanol hydrochloride]	–	–	27.5 nM	27.5 nM	–
CCCCCCCCCCCCCCC[C@@H](O)[C@@H](N)CCC [drawing 64, (4S,5R)-4-Amino-5-eicosanol]	159 nM	159 nM	–	–	–
CCCCCCCCCCCCCCC[C@@H](O)[C@@H](N)CCC [drawing 65, (4S,5R)-4-Amino-5-eicosanol hydrochloride]	–	–	28.6 nM	28.6 nM	–
CCCCCCCCCCCCCCC[C@@H](O)[C@@H](N)Cc1ccc(O)cc1 [drawing 69, (2S,3R)-2-Amino-1-(4′-hydroxyphenyl)-3-octadecanol]	1320 nM	1320 nM	–	–	–
CCCCCCCCCCCCCCC[C@@H](O)[C@@H](N)Cc1ccc(O)cc1 [drawing 70, (2S,3R)-2-Amino-1-(4′-hydroxyphenyl)-3-octadecanol hydrochloride]	–	–	242 nM	242 nM	–
CCCCCCCCCCCCCCC[C@@H](O)[C@@H](N)CCCN [drawing 71, (4S,5R)-1,4-Diamino-5-eicosanol]	–	–	–	–	IC50 (A549; Homo sapiens, A549, A549): 1520 nM; IC50 (HT29; Homo sapiens, HT-29, HT29): 1520 nM
